Conditions: Liquid, Vibrating tube method

CCCCn1cc[n+](C)c1C.O=S(=O)([N-]S(=O)(=O)C(F)(F)F)C(F)(F)F
mass density [kg/m3]
Conditions | 100 kPa | 1000 kPa | 10000 kPa | 20000 kPa | 40000 kPa | 60000 kPa | 80000 kPa | 100000 kPa | 120000 kPa
278.15 K | 1439.8 | 1440 | 1445.9 | 1452.2 | 1464 | 1475 | 1485.2 | 1494.7 | 1503.9
298.15 K | 1420.9 | 1421.2 | 1427.5 | 1434.1 | 1446.5 | 1458 | 1468.8 | 1479 | 1488.7
313.15 K | 1407.1 | 1407.5 | 1414 | 1420.9 | 1433.9 | 1445.8 | 1457 | 1467.3 | 1477.2
333.15 K | 1388.5 | 1389 | 1396 | 1403.4 | 1417.1 | 1429.7 | 1441.4 | 1452.2 | 1462.6
348.15 K | 1374.7 | 1375.3 | 1382.7 | 1390.4 | 1404.7 | 1417.8 | 1429.9 | 1441.1 | 1451.7
373.15 K | 1351.1 | 1352.3 | 1360.4 | 1368.7 | 1384 | 1397.9 | 1410.6 | 1422.5 | 1433.6
398.15 K | 1328.4 | 1329.7 | 1338.4 | 1347.4 | 1363.8 | 1378.5 | 1392.1 | 1404.6 | 1416
